Measured values: ChEMBL document CHEMBL2010659, “Synthesis of novel long wavelength cationic chlorins via stereoselective aldol-like condensation” (Bioorg Med Chem Lett, 2012)
pIC50: −log10 of the molar value. Active and inactive are the calls of the source. The rule behind the calls is not given here.

What was measured:
Type in all cases: functional, cell-based
[1] = system: HeLa; assay: Cytotoxicity against human HeLa cells up to 10 uM after 12 hrs by WST-8 assay
[2] = system: HeLa; assay: Cytotoxicity against human HeLa cells of light exposed compound up to 10 uM after 12 hrs by WST-8 assay
[3] = system: HeLa; assay: Cytotoxicity against human HeLa cells of light exposed compound after 12 hrs by WST-8 assay

SMILES	Activity [1]	Activity [2]	Activity [3]	pIC50 [3]
C=Cc1c(C)c2cc3nc(c4c5[nH]c(cc6nc(cc1[nH]2)C(C)=C6CC)c(C)c5C(=O)N(OC)C4=O)[C@@H](CCC(=O)OC)[C@@H]3C	inactive	Active	Dose-dependent effect	5.57
CCC1=C(C)c2cc3[nH]c(cc4nc(c5c6[nH]c(cc1n2)c(C)c6C(=O)N(OC)C5=O)[C@@H](CCC(=O)OC)[C@@H]4C)c(C)c3/C=C/c1ccc2ccccc2[n+]1C	inactive	Active	Dose-dependent effect	6.01
CCC1=C(C)c2cc3[nH]c(cc4nc(c5c6[nH]c(cc1n2)c(C)c6C(=O)C5)[C@@H](CCC(=O)OC)[C@@H]4C)c(C)c3/C=C/c1ccc2ccccc2[n+]1C	inactive	Active	Dose-dependent effect	5.27
CCC1=C(C)c2cc3[nH]c(cc4nc(c5c6[nH]c(cc1n2)c(C)c6C(=O)N(OC)C5=O)[C@@H](CCC(=O)OC)[C@@H]4C)c(C)c3/C=C/c1cccc[n+]1C	inactive	Active	Dose-dependent effect	6.96
C=Cc1c(C)c2cc3nc(c4c5[nH]c(cc6nc(cc1[nH]2)C(C)=C6CC)c(C)c5C(=O)C4)[C@@H](CCC(=O)OC)[C@@H]3C [METHYL PYROPHEOPHORBIDE A]	inactive	Active	Dose-dependent effect	6.55
CCC1=C(C)c2cc3[nH]c(cc4nc(c5c6[nH]c(cc1n2)c(C)c6C(=O)C5)[C@@H](CCC(=O)OC)[C@@H]4C)c(C)c3/C=C/c1cc[n+](C)cc1	inactive	Active	Dose-dependent effect	5.10
